Target: T1, human RIPK1 (1-375) (Homo sapiens, UniProt Q13546)
T1 construct: human RIPK1 (1-375) gene; GST; made in house; host or cells: Sf-9 insect cells
T1 sequence (Q13546 1-375): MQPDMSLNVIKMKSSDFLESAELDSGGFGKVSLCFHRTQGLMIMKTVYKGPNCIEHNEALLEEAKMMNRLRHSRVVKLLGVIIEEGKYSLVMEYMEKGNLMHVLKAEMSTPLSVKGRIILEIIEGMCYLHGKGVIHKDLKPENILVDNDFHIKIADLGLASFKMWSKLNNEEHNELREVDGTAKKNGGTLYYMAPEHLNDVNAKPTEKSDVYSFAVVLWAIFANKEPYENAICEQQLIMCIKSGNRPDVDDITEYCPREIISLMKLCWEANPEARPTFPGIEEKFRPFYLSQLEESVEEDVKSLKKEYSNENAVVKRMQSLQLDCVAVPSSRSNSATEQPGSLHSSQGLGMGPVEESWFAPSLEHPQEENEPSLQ
Assay: Human RIPK1 enzyme inhibitory effect (ADP-Glo Kinase Assay)
Type: biochemical
Conditions: well without enzyme = 100% inhibition; for inhibition at 10 µM: read-out: human RIPK1 enzyme inhibitory effect at 10 μM (% inhibition), 10 μM test compound; for human RIPK1 enzyme inhibitory effect at 10 μM (% inhibition): 10 μM test compound
Outline: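 ADP-Glo luminescence read-out of ADP formed over 120 min at room temperature after adding 0.6 mM ATP solution (stock concentration). Compound and Sf-9-expressed, GST-purified RIPK1 (1-375) were first incubated together for 20 min in HEPES pH 7.5 buffer with MgCl2, Tween-20 and DTT.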

SMILES | inhibition at 10 µM [%] | human RIPK1 enzyme inhibitory effect at 10 μM (% inhibition) [%]
CN1C(=O)[C@@H](N2CCc3cn(Cc4ccccc4)nc3C2=O)COc2cc(F)ccc21 [Example 152, (3S)-3-(2-benzyl-7-oxo-2,4,5,7-tetrahydro-6H-pyrazolo[3,4-c]pyridin-6-yl)-8-fluoro-5-methyl-2,3-dihydro-1,5-benzoxazepin-4(5H)-one] | 99 | 
CN1C(=O)[C@@H](N2CCc3c(nn(Cc4cnccn4)c3Cl)C2=O)COc2ccc(F)cc21 [Example 143, (3S)-3-(3-chloro-7-oxo-2-(pyrazin-2-ylmethyl)-2,4,5,7-tetrahydro-6H-pyrazolo[3,4-c]pyridin-6-yl)-7-fluoro-5-methyl-2,3-dihydro-1,5-benzoxazepin-4(5H)-one] | 100 | 
CN1C(=O)[C@@H](N2CCc3c(nn(Cc4ccccc4)c3O)C2=O)COc2ccccc21 [Example 49, (3S)-3-(2-benzyl-3-hydroxy-7-oxo-2,4,5,7-tetrahydro-6H-pyrazolo[3,4-c]pyridin-6-yl)-5-methyl-2,3-dihydro-1,5-benzoxazepin-4(5H)-one] | 87 | 
Cc1c2c(nn1Cc1ccccc1F)C(=O)N([C@H]1COc3cc(Br)ccc3N(C)C1=O)CC2 [Example 109, (3S)-8-bromo-3-(2-(2-fluorobenzyl)-3-methyl-7-oxo-2,4,5,7-tetrahydro-6H-pyrazolo[3,4-c]pyridin-6-yl)-5-methyl-2,3-dihydro-1,5-benzoxazepin-4(5H)-one] | 100 | 
CN1C(=O)C(N2CCc3c(nn(Cc4ccccc4)c3Cl)C2=O)CCc2cn(C)nc21 (stereo not drawn) [Example 111, 6-(2-benzyl-3-chloro-7-oxo-2,4,5,7-tetrahydro-6H-pyrazolo[3,4-c]pyridin-6-yl)-2,8-dimethyl-2,5,6,8-tetrahydropyrazolo[3,4-b]azepin-7(4H)-one] |  | 99
CN1C(=O)[C@@H](N2CCc3cn(Cc4ccc(S(C)(=O)=O)cc4)nc3C2=O)COc2ccccc21 [Example 164, (3S)-5-methyl-3-(2-(4-(methylsulfonyl)benzyl)-7-oxo-2,4,5,7-tetrahydro-6H-pyrazolo[3,4-c]pyridin-6-yl)-2,3-dihydro-1,5-benzoxazepin-4(5H)-one] | 98 | 
CNC(=O)c1ccc2c(c1)OC[C@H](N1CCc3c(nn(Cc4ccccc4)c3Cl)C1=O)C(=O)N2C [Example 44, (3S)-3-(2-benzyl-3-chloro-7-oxo-2,4,5,7-tetrahydro-6H-pyrazolo[3,4-c]pyridin-6-yl)-N,5-dimethyl-4-oxo-2,3,4,5-tetrahydro-1,5-benzoxazepine-8-carboxamide] | 100 | 
CN1C(=O)[C@@H](N2CCc3cn(CC4CCCC4)nc3C2=O)COc2ccccc21 [Example 37, (3S)-3-(2-(cyclopentylmethyl)-7-oxo-2,4,5,7-tetrahydro-6H-pyrazolo[3,4-c]pyridin-yl)-5-methyl-2,3-dihydro-1,5-benzoxazepin-4(5H)-one] | 100 | 
CN1C(=O)[C@@H](N2CCc3c(nn(Cc4ccccc4)c3Cl)C2=O)COc2cc(C(N)=O)ccc21 [Example 64, (3S)-3-(2-benzyl-3-chloro-7-oxo-2,4,5,7-tetrahydro-6H-pyrazolo[3,4-c]pyridin-6-yl)-5-methyl-4-oxo-2,3,4,5-tetrahydro-1,5-benzoxazepine-8-carboxamide] | 101 | 
CN1C(=O)C(N2CCc3c(nn(Cc4ccccc4)c3Cl)C2=O)CCc2c1cnn2C (stereo not drawn) [Example 127, 6-(2-benzyl-3-chloro-7-oxo-2,4,5,7-tetrahydro-6H-pyrazolo[3,4-c]pyridin-6-yl)-1,4-dimethyl-4,6,7,8-tetrahydropyrazolo[4,3-b]azepin-5(1H)-one] |  | 100

More lines, now with the values ahead:

inhibition at 10 µM [%] | human RIPK1 enzyme inhibitory effect at 10 μM (% inhibition) [%] | SMILES
 | 101 | CN1C(=O)C(N2CCc3c(nn(Cc4ccccc4)c3Cl)C2=O)CCc2cccnc21 (stereo not drawn) [Example 94, 7-(2-benzyl-3-chloro-7-oxo-2,4,5,7-tetrahydro-6H-pyrazolo[3,4-c]pyridin-6-yl)-9-methyl-5,6,7,9-tetrahydro-8H-pyrido[2,3-b]azepin-8-one]
72 |  | O=C1Nc2ccccc2CCC1N1CCn2nc(Cc3ccccc3)cc2C1=O (stereo not drawn) [Example 18, 3-(2-benzyl-4-oxo-6,7-dihydropyrazolo[1,5-a]pyrazin-5(4H)-yl)-1,3,4,5-tetrahydro-2H-1-benzazepin-2-one]
88 |  | O=C1Nc2ccccc2CCC1n1ccc2cn(Cc3ccccc3)nc2c1=O (stereo not drawn) [Example 5, 3-(2-benzyl-7-oxo-2,7-dihydro-6H-pyrazolo[3,4-c]pyridin-6-yl)-1,3,4,5-tetrahydro-2H-1-benzazepin-2-one]
96 |  | CN1C(=O)C(n2ccc3cn(Cc4ccccc4)nc3c2=O)CCc2ccccc21 (stereo not drawn) [Example 6, 3-(2-benzyl-7-oxo-2,7-dihydro-6H-pyrazolo[3,4-c]pyridin-6-yl)-1-methyl-1,3,4,5-tetrahydro-2H-1-benzazepin-2-one]
98 |  | COc1c2c(nn1Cc1ccccc1)C(=O)N([C@H]1COc3ccccc3N(C)C1=O)CC2 [Example 48, (3S)-3-(2-benzyl-3-methoxy-7-oxo-2,4,5,7-tetrahydro-6H-pyrazolo[3,4-c]pyridin-6-yl)-5-methyl-2,3-dihydro-1,5-benzoxazepin-4(5H)-one]
